The values that follow come from ChEMBL document CHEMBL1921790, “Synthesis and antimicrobial activity of brominated resorcinol dimers” (Bioorg Med Chem Lett, 2011).

One assay deals with Trichophyton rubrum. The assay can be described thus: Antifungal activity against Trichophyton rubrum IFO 9185 after 48 to 72 hrs by two fold serial dilution method. The assay is classed as functional.
The next assay has as its system Staphylococcus aureus. The assay is described as follows: Antibacterial activity against Staphylococcus aureus ATCC 6538p after 24 hrs by two fold serial dilution method. The assay is classed as functional.
The next assay relates to Candida albicans. The assay is described as follows: Antifungal activity against Candida albicans ATCC 10231 after 24 to 72 hrs by two fold serial dilution method. The assay is classed as functional.
A further assay has as its target Isocitrate lyase (Candida albicans, UniProt Q9P8Q7). The assay can be described thus: Inhibition of Candida albicans isocitrate lyase after 30 mins.
In the next assay the test system is Micrococcus luteus. The assay is described as follows: Antibacterial activity against Micrococcus luteus IFC 12708 after 24 hrs by two fold serial dilution method. The assay is classed as functional. The note with it: IFC 12708, 24 h.
The next assay relates to Proteus vulgaris. The assay is described as follows: Antibacterial activity against Proteus vulgaris ATCC 3851 after 24 hrs by two fold serial dilution method. As to conditions: ATCC 3851, 24 h. It is filed as functional.
The test system of a further assay is Salmonella typhimurium. The assay can be described thus: Antibacterial activity against Salmonella Typhimurium ATCC 14028 after 24 hrs by two fold serial dilution method. The assay is classed as functional, Salmonella enterica subsp. enterica serovar Typhimurium. The note with it: Salmonella enterica, ATCC 14028, 24 h.
Assay [1] relates to Trichophyton mentagrophytes. The assay is described as follows: Antifungal activity against Trichophyton mentagrophytes IFO 40996 after 48 to 72 hrs by two fold serial dilution method. It is filed as functional.
The next assay has as its system Escherichia coli. The assay can be described thus: Antibacterial activity against Escherichia coli ATCC 25922 after 24 hrs by two fold serial dilution method. It is filed as functional. The note with it: ATCC 25922, 24 h.
Another assay relates to Aspergillus fumigatus. The assay is described as follows: Antifungal activity against Aspergillus fumigatus HIC 6094 after 48 to 72 hrs by two fold serial dilution method. It is filed as functional.
The next assay deals with Bacillus subtilis. The assay can be described thus: Antibacterial activity against Bacillus subtilis ATCC 6633 after 24 hrs by two fold serial dilution method. It is filed as functional. As to conditions: ATCC 6633, 24 h.

≈ marks a conversion by molar mass, not a printed value.

Isocitrate lyase, sequence (Q9P8Q7 whole entry): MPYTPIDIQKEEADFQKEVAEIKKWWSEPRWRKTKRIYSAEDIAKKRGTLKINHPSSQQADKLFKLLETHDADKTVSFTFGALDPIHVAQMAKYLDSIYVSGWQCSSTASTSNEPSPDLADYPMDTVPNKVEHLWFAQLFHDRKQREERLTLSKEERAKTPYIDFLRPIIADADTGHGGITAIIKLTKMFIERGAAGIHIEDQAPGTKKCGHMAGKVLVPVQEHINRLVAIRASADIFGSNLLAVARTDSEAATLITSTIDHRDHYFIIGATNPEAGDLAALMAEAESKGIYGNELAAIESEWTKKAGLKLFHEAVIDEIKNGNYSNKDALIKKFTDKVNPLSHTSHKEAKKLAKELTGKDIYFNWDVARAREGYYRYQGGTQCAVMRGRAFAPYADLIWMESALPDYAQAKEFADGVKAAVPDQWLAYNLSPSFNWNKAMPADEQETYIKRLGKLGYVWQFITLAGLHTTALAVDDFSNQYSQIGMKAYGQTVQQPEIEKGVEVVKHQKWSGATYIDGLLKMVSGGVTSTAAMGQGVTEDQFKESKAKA

Consider `O=[N+]([O-])c1cccc(C(c2ccc(O)cc2O)c2cc(Br)c(O)cc2O)c1` (configuration not stated), for which the MIC (as a rule, the lowest concentration that inhibits growth of the organism) against Trichophyton rubrum is more than 100 µg/mL; in the assay with Staphylococcus aureus, 12.5 µg/mL (≈ 28.9 µM); in the assay on Candida albicans it was 100 µg/mL (≈ 231 µM); against Micrococcus luteus, 12.5 µg/mL (≈ 28.9 µM); against Proteus vulgaris, 6.25 µg/mL (≈ 14.5 µM); against Salmonella typhimurium, 6.25 µg/mL (≈ 14.5 µM). For the same compound, the MIC in assay [1] is more than 100 µg/mL; against Escherichia coli it was more than 100 µg/mL; against Aspergillus fumigatus it was more than 100 µg/mL; in the assay on Bacillus subtilis, 6.25 µg/mL (≈ 14.5 µM). The IC50 – broadly, the concentration at which inhibition is half-maximal – against Isocitrate lyase came to 69.9 µM.
The compound `O=C(O)CC[N+](=O)[O-]` had an IC50 on Isocitrate lyase of 6 µM.
Take `O=[N+]([O-])c1ccc(C(c2ccc(O)cc2O)c2cc(Br)c(O)cc2O)cc1` (configuration not stated): the MIC is more than 100 µg/mL against Trichophyton rubrum; 100 µg/mL (≈ 231 µM) in the assay with Staphylococcus aureus; more than 100 µg/mL against Candida albicans; 50 µg/mL (≈ 116 µM) in the assay with Micrococcus luteus; 100 µg/mL (≈ 231 µM) against Proteus vulgaris; 100 µg/mL (≈ 231 µM) with Salmonella typhimurium. In addition, the MIC in [1] was more than 100 µg/mL; in the assay on Escherichia coli it was more than 100 µg/mL; in the assay on Aspergillus fumigatus it was more than 100 µg/mL; against Bacillus subtilis it was 50 µg/mL (≈ 116 µM). The same compound showed an IC50 on Isocitrate lyase of 41.2 µM.
For the compound `Oc1ccc(C(c2cc(Br)c(O)cc2O)c2c(Cl)cccc2Cl)c(O)c1` (configuration not stated), the MIC in the assay with Trichophyton rubrum is more than 100 µg/mL; in the assay with Staphylococcus aureus, 12.5 µg/mL (≈ 27.4 µM); with Candida albicans it was more than 100 µg/mL; with Micrococcus luteus, 12.5 µg/mL (≈ 27.4 µM); in the assay on Proteus vulgaris, 12.5 µg/mL (≈ 27.4 µM); in the assay on Salmonella typhimurium it was 12.5 µg/mL (≈ 27.4 µM). Moreover, the MIC in assay [1] is more than 100 µg/mL; against Escherichia coli, more than 100 µg/mL; against Aspergillus fumigatus, more than 100 µg/mL; with Bacillus subtilis, 6.25 µg/mL (≈ 13.7 µM). Moreover, the midpoint of inhibition at Isocitrate lyase, the IC50, lay at 78.7 µM.
On to `O=[N+]([O-])c1cccc(C(c2cc(Br)c(O)cc2O)c2cc(Br)c(O)cc2O)c1`, for which the MIC against Trichophyton rubrum worked out at 100 µg/mL (≈ 196 µM); against Staphylococcus aureus, 3.12 µg/mL (≈ 6.1 µM); in the assay on Candida albicans, 50 µg/mL (≈ 97.8 µM); in the assay with Micrococcus luteus, 1.56 µg/mL (≈ 3.05 µM); against Proteus vulgaris, 1.56 µg/mL (≈ 3.05 µM); in the assay with Salmonella typhimurium it was 3.12 µg/mL (≈ 6.1 µM). In addition, the MIC in [1] was 100 µg/mL (≈ 196 µM); against Escherichia coli, more than 100 µg/mL; with Aspergillus fumigatus it was 100 µg/mL (≈ 196 µM); against Bacillus subtilis it was 1.56 µg/mL (≈ 3.05 µM). The compound also yielded an IC50 against Isocitrate lyase of 26.8 µM.
As for `O=[N+]([O-])c1ccc(C(c2cc(Br)c(O)cc2O)c2cc(Br)c(O)cc2O)cc1`, the MIC is more than 100 µg/mL in the assay on Trichophyton rubrum; 25 µg/mL (≈ 48.9 µM) against Staphylococcus aureus; more than 100 µg/mL in the assay with Candida albicans; 12.5 µg/mL (≈ 24.5 µM) against Micrococcus luteus; 25 µg/mL (≈ 48.9 µM) with Proteus vulgaris; 25 µg/mL (≈ 48.9 µM) in the assay on Salmonella typhimurium. In addition, the MIC was more than 100 µg/mL in assay [1], more than 100 µg/mL with Escherichia coli, more than 100 µg/mL against Aspergillus fumigatus and 12.5 µg/mL (≈ 24.5 µM) against Bacillus subtilis. Besides, the IC50 at Isocitrate lyase came out at 20.7 µM.
As for `CCCCCC(c1cc(Br)c(O)cc1O)c1cc(Br)c(O)cc1O`, the MIC amounted to 12.5 µg/mL (≈ 27.2 µM) against Trichophyton rubrum; 3.12 µg/mL (≈ 6.78 µM) in the assay on Staphylococcus aureus; 25 µg/mL (≈ 54.3 µM) with Candida albicans; 1.56 µg/mL (≈ 3.39 µM) in the assay on Micrococcus luteus; 1.56 µg/mL (≈ 3.39 µM) with Proteus vulgaris; 3.12 µg/mL (≈ 6.78 µM) in the assay on Salmonella typhimurium. Also, the MIC was determined as 25 µg/mL (≈ 54.3 µM) in assay [1], 50 µg/mL (≈ 109 µM) against Escherichia coli, 12.5 µg/mL (≈ 27.2 µM) with Aspergillus fumigatus and 1.56 µg/mL (≈ 3.39 µM) against Bacillus subtilis. Also, the IC50 against Isocitrate lyase was found to be 28 µM.
As to `Oc1cc(O)c(C(c2cc(Br)c(O)cc2O)c2c(Cl)cccc2Cl)cc1Br`, the MIC against Trichophyton rubrum is more than 100 µg/mL; against Staphylococcus aureus, 6.25 µg/mL (≈ 11.7 µM); in the assay with Candida albicans it was 100 µg/mL (≈ 187 µM); against Micrococcus luteus, 1.56 µg/mL (≈ 2.92 µM); in the assay on Proteus vulgaris, 1.56 µg/mL (≈ 2.92 µM); in the assay with Salmonella typhimurium, 6.25 µg/mL (≈ 11.7 µM). In addition, the MIC in assay [1] was 100 µg/mL (≈ 187 µM); in the assay with Escherichia coli it was 100 µg/mL (≈ 187 µM); against Aspergillus fumigatus it was 100 µg/mL (≈ 187 µM); in the assay on Bacillus subtilis, 1.56 µg/mL (≈ 2.92 µM). At Isocitrate lyase, this compound returned an IC50 of 17.9 µM.
On to `CCCCCC(c1ccc(O)cc1O)c1cc(Br)c(O)cc1O` (configuration not stated), for which the MIC was found to be 50 µg/mL (≈ 131 µM) against Trichophyton rubrum; 6.25 µg/mL (≈ 16.4 µM) in the assay on Staphylococcus aureus; 50 µg/mL (≈ 131 µM) against Candida albicans; 3.12 µg/mL (≈ 8.18 µM) in the assay with Micrococcus luteus; 3.12 µg/mL (≈ 8.18 µM) in the assay on Proteus vulgaris; 3.12 µg/mL (≈ 8.18 µM) against Salmonella typhimurium. In addition, the MIC in [1] was 50 µg/mL (≈ 131 µM); against Escherichia coli it was 100 µg/mL (≈ 262 µM); in the assay with Aspergillus fumigatus, 50 µg/mL (≈ 131 µM); against Bacillus subtilis, 3.12 µg/mL (≈ 8.18 µM). The compound further displayed an IC50 against Isocitrate lyase of 46.6 µM.
For `Oc1ccc(C(c2ccc(O)cc2O)c2cc(Br)c(O)cc2O)cc1` (configuration not stated), the MIC was more than 100 µg/mL in the assay with Trichophyton rubrum; 6.25 µg/mL (≈ 15.5 µM) in the assay with Staphylococcus aureus; more than 100 µg/mL against Candida albicans; 3.12 µg/mL (≈ 7.74 µM) against Micrococcus luteus; 3.12 µg/mL (≈ 7.74 µM) in the assay on Proteus vulgaris; 6.25 µg/mL (≈ 15.5 µM) against Salmonella typhimurium. For the same compound, the minimum inhibitory concentration (MIC) in assay [1] was more than 100 µg/mL; in the assay on Escherichia coli, more than 100 µg/mL; with Aspergillus fumigatus, more than 100 µg/mL; against Bacillus subtilis it was 3.12 µg/mL (≈ 7.74 µM). The IC50 against Isocitrate lyase was determined as 90.5 µM.
As to `CCCCCC(c1ccc(O)cc1O)c1ccc(O)cc1O`, the MIC with Trichophyton rubrum is more than 100 µg/mL; in the assay with Staphylococcus aureus it was 12.5 µg/mL (≈ 41.3 µM); against Candida albicans it was more than 100 µg/mL; against Micrococcus luteus it was 12.5 µg/mL (≈ 41.3 µM); in the assay with Proteus vulgaris it was 12.5 µg/mL (≈ 41.3 µM); against Salmonella typhimurium, 12.5 µg/mL (≈ 41.3 µM). Also, the MIC in assay [1] is more than 100 µg/mL; in the assay on Escherichia coli, 100 µg/mL (≈ 331 µM); against Aspergillus fumigatus it was more than 100 µg/mL; in the assay with Bacillus subtilis, 6.25 µg/mL (≈ 20.7 µM). This compound came in with an IC50 on Isocitrate lyase of 167 µM.
In the case of `Oc1ccc(C(c2cc(Br)c(O)cc2O)c2cc(Br)c(O)cc2O)cc1`, the MIC with Trichophyton rubrum came to 100 µg/mL (≈ 207 µM); against Staphylococcus aureus, 0.78 µg/mL (≈ 1.62 µM); against Candida albicans it was 50 µg/mL (≈ 104 µM); against Micrococcus luteus, 0.78 µg/mL (≈ 1.62 µM); with Proteus vulgaris it was 0.78 µg/mL (≈ 1.62 µM); in the assay with Salmonella typhimurium it was 1.56 µg/mL (≈ 3.24 µM). The MIC in assay [1] is 100 µg/mL (≈ 207 µM); in the assay with Escherichia coli it was more than 100 µg/mL; in the assay on Aspergillus fumigatus, 50 µg/mL (≈ 104 µM); in the assay with Bacillus subtilis it was 0.78 µg/mL (≈ 1.62 µM). For the same compound, the IC50 against Isocitrate lyase is 25.9 µM.
Regarding `CC1(C)S[C@@H]2[C@H](NC(=O)[C@H](N)c3ccccc3)C(=O)N2[C@H]1C(=O)O` [AMPICILLIN], the MIC with Trichophyton rubrum was 1.56 µg/mL (≈ 4.46 µM); against Staphylococcus aureus, 0.39 µg/mL (≈ 1.12 µM); in the assay on Candida albicans it was 0.78 µg/mL (≈ 2.23 µM); against Micrococcus luteus it was 1.56 µg/mL (≈ 4.46 µM); in the assay with Proteus vulgaris, 0.78 µg/mL (≈ 2.23 µM); against Salmonella typhimurium, 0.78 µg/mL (≈ 2.23 µM). Further, the MIC in assay [1] was 1.56 µg/mL (≈ 4.46 µM); in the assay on Escherichia coli it was 6.25 µg/mL (≈ 17.9 µM); against Aspergillus fumigatus it was 1.56 µg/mL (≈ 4.46 µM); against Bacillus subtilis, 0.39 µg/mL (≈ 1.12 µM).
